How the values were obtained:
[1] = test system: stratum corneum barrier in reconstructed human epidermis (RHE); assay: Toluidine blue diffusion assay in RHE with SDS; type: cell-based; set-up: key: 4: Strong; 3: Clear; 2: Moderate; 1: Slight; settings: 24 h, SDS 0.02 mg/ml on top layer, peptide 50 μg/ml + SDS
Experimental: The SkinEthic human tissue models (EpiSkin) are removed from their agarose-nutrient solution in the multiwell plate immediately after arrival and are placed in a 6-well plate in which each well has previously been filled with SkinEthic Growth Medium (EpiSkin). After overnight incubation at 37° C., 5% CO2, the top layer of tissue model is treated with 100 μl of a 50 μg/ml solution of peptide Ac-Glu-Glu-Met-Gln-Arg-Arg-Ala-NH2 (PEP-2) in a 0.02 mg/ml sodium dodecyl sulfate (SDS, Sigma) solution in growth medium and dermal side of tissue model is treated with 1 ml of a 50 μg/ml solution of the same peptide in growth medium. The top layer and dermal side of a tissue model is treated with growth medium as basal condition. In another tissue model, its top layer is treated with a 0.02 mg/ml SDS solution in growth medium while its dermal side is treated with growth medium alone, both in absence of peptide, for its use as a positive control. All incubations are performed at 37° C. and 5% CO2 for 24 h.
After the 24-hours treatment, the top layer of tissue models are further treated with 200 μl of methanol for 2 min at room temperature and, after that, they are rinsed twice with 200 μl of phosphate-buffered saline (PBS, Sigma). […] At least 12 representative images from each condition are collected and scored according to the ranking described in Table 14. […]

[2] = test system: tight junction (TJ) barrier in reconstructed human epidermis (RHE); assay: TJ permeability assay, biotin dye penetration in RHE with SDS; type: cell-based; settings: 24 hours
Experimental: TJ permeability assay using surface biotinylation technique was performed in incubated reconstructed human epidermis (RHE) with EZ-UN Sulfo-NHS-LC-LC-Biotin from the dermal side. The aim of this study is to investigate the ability of peptides of the invention to enhance the barrier function by inhibiting diffusion of the dye through stratum granulosum in presence of sodium dodecyl sulfate (SDS) which causes functional deterioration of TJs.
SkinEthic human tissue models (EpiSkin) are removed from their agarose-nutrient solution in a multiwell plate immediately after arrival and are placed in a 6-well plate in which each well has previously been filled with SkinEthic Growth Medium (EpiSkin). After overnight incubation at 37° C., 5% CO2, tissue models are treated with 50 μg/ml of peptide Ac-Glu-Glu-Met-Gln-Arg-Arg-Ala-NH2 (PEP-2) and a 0.02 mg/ml sodium dodecyl sulfate (SDS, Sigma) solution in growth medium, (1 ml/well). […]
Microscopical observations are performed with a Zeiss fluorescence microscope and photographs of each condition are taken with the associated camera. Fluorescence images of biotin are quantified as the product of its area and the intensity mean value of channel ‘EGFP’ Green (excitation: 488 nm and emission: 509 nm) and normalized by basal conditions. At least 12 representative images from each condition are collected and analyzed with the ZEN software (Zeiss). […]

[3] = test system: Nuclear Factor Kappa B subunit 1 (NFKB1); assay: Innate immune response gene expression in HEKa, real time PCR array; type: cell-based, human; settings: 50 μg/ml, 24 h
Experimental: (§1) HEKa cells (Life Technologies) are seeded at 6.0×10^5 cells/well in 6-well plates and incubated in culture medium Epillfe™ with defined Growth Supplement (EDGS, Life Technologies), at 37° C. in a water-saturated atmosphere of 95% air and 5% CO2. After 24 hours of incubation under these conditions, medium is removed and cells are incubated with 50 μg/ml (w/v) of a peptide of the invention (see Table 16) in fresh culture medium keeping two wells where HEKa cells are incubated with medium only (basal conditions) at 37° C. and 5% CO2.
After 24 h of incubation, the cells are lysed directly in the wells following the protocol described on the RNeasy™ Mini kit (Qiagen) according to the manufacturer's protocol. The lysed cells are homogenized and the RNases are inactivated. The genomic DNA is removed from the samples by using gDNA Eliminator spin columns (Qiagen). Then the samples are passed through special RNA binding columns (Qiagen) and, after several microcentrifugation washes to eliminate contaminants and impurities, the purified RNA is eluted with 50 μl of ultrapure water. Quantification and analysis of purity of RNA samples are performed after RNA elution with a biophotometer (Eppendorf). 1 μg of high-quality RNA is retrotranscribed with iScript™ advanced (BioRad) in a final volume of 20 μl·Complete reaction mix is incubated in a thermal cycler (Eppendorf) at 42° C. for 30 minutes, and the reactions are stopped at 85° C. for 5 minutes. Complementary DNA is amplified by qPCR in a real-time PCR thermocycler (BioRad) using SYBR®Green supermix (BioRad) and a customized plate for use with SYBR®Green (BioRad). SYBR®Green binds to double-stranded DNA molecules and emits fluorescence which is quantified and is proportional to the amount of the product in the PCR reaction. Cycling conditions in BioRad CFX96™ instrument are 95° C. for 3 minutes, followed by 40 cycles of denaturing at 95° C. for 5 seconds, annealing and elongation at 60° C. for 30 seconds. GAPDH (Glyceraldehyde 3-phosphate dehydrogenase), TBP (TATA box binding protein) and HRPT1 (hypoxanthine phosphoribosyltransferase 1) are used as endogenous controls. Fold change relative to the expression of the sample genes and reference genes is calculated using normalized expression (ΔΔ(Ct)) method with default threshold values using CFX Manager Software (BioRad).
(§2) Genes analyzed are Chemokine (C-C motif) Ligand 5 (CCL5), Myeloid Differentiation primary response gene 88 (MyD88), Nuclear Factor Kappa B subunit 1 (NFKB1) and interferon Regulatory Factor 3 (IRF3).

[4] = test system: Staphylococcus epidermidis; assay: Adherence of Staphylococcus epidermidis in keratinocytes (HaCaT) in competition with S. aureus bioparticles; type: cell-based; settings: 50 μg/ml, 24 h, basal = 0
Experimental: After that treatment, cells are washed with phosphate-buffered saline (PBS, Sigma) and are then incubated with a solution of Staphylococcus epidermidis (ATCC®12228™, Culture Collections) treated with green-fluorescence calcein AM (Life technologic) and Alexa Fluor 594™ Bioparticles Staphylococcus aureus (ThermoFisher) in PBS for 30 minutes at 37° C. and protected from light. At the end of the incubation period, cells are washed with PBS and fixed in 4% (v/v) paraformaldehyde (PFA, Sigma) for 30 minutes. After rinsing with PBS, the nuclei are stained with Hoechst 33342, trihydrochloride trihydrate (ThermoFisher) in PBS for 10 minutes before analysis.
Cellular imaging is performed by fluorescence microscopy using the Operetta® High Content Imaging System (PerkinElmer). From each fluorescence image, Staphylococcus epidermidis is quantified as a number of spots and normalized against the number of keratinocyte nuclei and the total bacteria number (understood as the addition of detected S. epidermidis spots and S. aureus bioparticles). Each value obtained is normalized respect to basal conditions (non-treated keratinocytes). An image is taken in three different fields per well. 12 representative images from each condition are analyzed with Harmony software (PerkinElmer).
The normalized percentage of Staphylococcus epidermidis respect to basal conditions in treated keratinocytes is represented in Table 17.

[5] = test system: Claudin 1 (CLDN1); assay: Tight junction gene expression in HEKa, real time PCR array; settings: 50 μg/ml, 24 hours
Experimental: (§3) HEKa cells (Life Technologies) are seeded at 6.0×10^5 cells/well in 6-well plates and incubated in culture medium Epilife™ with defined Growth Supplement (EDGS, Life Technologies) at 37° C. in a water-saturated atmosphere of 95% air and 5% CO2. After 24 hours of incubation under these conditions, medium is removed and cells are incubated with 50 μg/ml of a peptide of the invention (see Table 12) in fresh culture medium, except for two wells where HEKa cells are incubated with medium only (basal conditions), at 37° C. and 5% CO2.
(§4) After 24 hours of incubation, the cells are lysed directly in the wells following the protocol described on the RNeasy™ Mini kit (Qiagen) according to the manufacturer's protocol. The lysed cells are homogenized and the Rnases are inactivated. The genomic DNA is removed from the samples by using gDNA Eliminator spin columns (Qiagen). […] Quantification and analysis of purity of RNA samples are performed after RNA elution with a biophotometer (Eppendorf). […] SYBR Green binds to double-stranded DNA molecules and emits fluorescence which is quantified and is proportional to the amount of the product in the PCR reaction. […] Fold change relative to the expression of the sample genes and reference genes is calculated using normalized expression (ΔΔ(Ct)) method with default threshold values using CFX Manager Software (BioRad).

[6] = test system: Tight Junction Protein 1 (TJP1); assay: as above; settings: 50 μg/ml, 24 hours
Experimental: as §3, §4

[7] = test system: Reconstructed Human Epidermis (RHE); assay: Lipidomic profile (UPLC-MS) of in vitro epidermal model; type: cell-based; settings: 50 μg/ml, 24 hours, vs basal conditions
Experimental: The SkinEthic human tissue models (EpiSkin™) are removed from their agarose-nutrient solution in the multiwell plate immediately after arrival and are placed in a 6-well plate in which each well has previously been filled with SkinEthic Growth Medium (EpiSkin™). After overnight incubation at 37° C., 5% CO2, Reconstructed Human Epidermis (RHE) are treated with 50 μg/ml of peptides Ac-Glu-Glu-Met-Gln-Arg-Arg-NH2 (PEP-1), Ac-Glu-Glu-Met-Gln-Arg-Arg-Ala-NH2 (PEP-2) or Ac-Glu-Glu-Met-Gln-Arg-Arg-Ala-Asp-NH2 (PEP-3) or medium (basal conditions) for 24 hours at 37° C. and 5% CO2. After the 24 hours treatment, RHE are frozen and stored at −20° C. Each treatment is applied to five RHE per condition.
Epidermal membrane model samples are thawed and removed from the inserts using a scalpel and transferred to homogenization tubes. Samples are mixed with sodium chloride (50 mM) and chloroform/methanol (2/1) (v:v) and homogenized. The extraction solvent is spiked with metabolites not detected in unspiked human serum extracts. After homogenizing the samples, extracts are incubated for 1 hour at −20° C. and centrifuged at 18,000×g for 15 minutes. The organic phase is then collected and dried under vacuum. Dried extracts are finally reconstituted in acetonitrile/isopropanol (1/1) (v:v), centrifuged at 18,000×g for 5 minutes and transferred to vials for UPLCs-MS analysis.
All data are processed using the TargetLynx™ application manager for MassLynx™ 4.1 software (Waters Corp., Milford, USA). A set of predefined retention time, mass-to-charge ratio pairs, Rt-m/z, corresponding to metabolites included in the analysis are fed into the program. Associated extracted ion chromatograms (mass tolerance window=0.05 Da) are then peak-detected and noise-reduced in both the LC and MS domains such that only true metabolite related features are processed by the software. A list of chromatographic peak areas is then generated for each sample injection and value respect to basal conditions is calculated.
Average of five values obtained for each peptide in relation to those obtained for basal conditions (without peptide in the medium) are shown in Table 11.

[8] = test system: interferon Regulatory Factor 3 (IRF3); assay: Innate immune response gene expression in HEKa, real time PCR array; settings: 50 μg/ml, 24 h
Experimental: as §1
After 24 h of incubation, the cells are lysed directly in the wells following the protocol described on the RNeasy™ Mini kit (Qiagen) according to the manufacturer's protocol. […] Quantification and analysis of purity of RNA samples are performed after RNA elution with a biophotometer (Eppendorf). […] SYBR®Green binds to double-stranded DNA molecules and emits fluorescence which is quantified and is proportional to the amount of the product in the PCR reaction. […] Fold change relative to the expression of the sample genes and reference genes is calculated using normalized expression (ΔΔ(Ct)) method with default threshold values using CFX Manager Software (BioRad).
as §2

CCCCCCCCCCCCOS(=O)(=O)[O-].[Na+] [SDS, sodium dodecyl sulfate, reference compound]
Total score (Toluidine Blue staining) [1]: 4 | Fold change with respect to basal condition (biotin fluorescence) ([2]; treatment from dermal side): 1.90

Ac-EEMQRKAD-NH2 [PEP-14, Ac-Glu-Glu-Met-Gln-Arg-Lys-Ala-Asp-NH2]
NFKB1 fold induction respect to basal conditions [3]: 2.59 | S. epidermidis (%), normalized percentage respect to basal conditions [4]: 22.18% | CLDN1 fold induction respect to basal conditions [5]: 2.59

Ac-EEMQRR-OH [PEP-61, Ac-Glu-Glu-Met-Gln-Arg-Arg-OH]
NFKB1 fold induction respect to basal conditions [3]: 1.71 | TJP1 fold induction respect to basal conditions [6]: 1.71 | S. epidermidis (%), normalized percentage respect to basal conditions [4]: 3.08%

Ac-EEMQRRA-NH2 [PEP-2, Ac-Glu-Glu-Met-Gln-Arg-Arg-Ala-NH2]
NFKB1 fold induction respect to basal conditions [3]: 2.19 | Cer_AP48 N-(alpha-hydroxyacyl) phytosphingosines [7]: 1.37 fold change | Cer_NP48 N-acyl phytosphingosines [7]: 1.24 fold change | Cer_NP49 N-acyl phytosphingosines [7]: 1.23 fold change | Cer_NP50 N-acyl phytosphingosines [7]: 1.23 fold change | Cer_NP51 N-acyl phytosphingosines [7]: 1.19 fold change | Cer_NS50 N-acyl sphingosines [7]: 1.18 fold change | Cer_NS51 N-acyl sphingosines [7]: 1.13 fold change | Cer_NS52 N-acyl sphingosines [7]: 1.37 fold change | Cer_NdS47 N-acyl dihydrosphingosines [7]: 1.10 fold change | Cer_NdS48 N-acyl dihydrosphingosines [7]: 1.23 fold change | Cer_NdS49 N-acyl dihydrosphingosines [7]: 1.46 fold change | Cer_NdS50 N-acyl dihydrosphingosines [7]: 1.50 fold change | Total score (Toluidine Blue staining) [1]: 2 | S. epidermidis (%), normalized percentage respect to basal conditions [4]: 24.69% | penetration of biotin to stratum corneum (result in words) ([2]; peptide 50 μg/ml with 0.02 mg/ml SDS): able to strengthen the tight junction (TJ) barrier

Ac-EEMQRRAD-NH2 [PEP-3, Ac-Glu-Glu-Met-Gln-Arg-Arg-Ala-Asp-NH2]
NFKB1 fold induction respect to basal conditions [3]: 2.04 | Cer_AP48 N-(alpha-hydroxyacyl) phytosphingosines [7]: 1.15 fold change | Cer_NP48 N-acyl phytosphingosines [7]: 1.19 fold change | Cer_NP49 N-acyl phytosphingosines [7]: 1.14 fold change | Cer_NP50 N-acyl phytosphingosines [7]: 1.30 fold change | Cer_NP51 N-acyl phytosphingosines [7]: 1.24 fold change | Cer_NS50 N-acyl sphingosines [7]: 1.14 fold change | Cer_NS51 N-acyl sphingosines [7]: 1.10 fold change | Cer_NS52 N-acyl sphingosines [7]: 1.30 fold change | Cer_NdS47 N-acyl dihydrosphingosines [7]: 1.20 fold change | Cer_NdS48 N-acyl dihydrosphingosines [7]: 1.34 fold change | Cer_NdS49 N-acyl dihydrosphingosines [7]: 1.43 fold change | Cer_NdS50 N-acyl dihydrosphingosines [7]: 1.68 fold change | S. epidermidis (%), normalized percentage respect to basal conditions [4]: 11.46%

Ac-EEMQRRED-NH2 [PEP-23, Ac-Glu-Glu-Met-Gln-Arg-Arg-Glu-Asp-NH2]
NFKB1 fold induction respect to basal conditions [3]: 2.58 | S. epidermidis (%), normalized percentage respect to basal conditions [4]: 20.10% | CLDN1 fold induction respect to basal conditions [5]: 2.58

Ac-EQMQRR-NH2 [PEP-50, Ac-Glu-Gln-Met-Gln-Arg-Arg-NH2]
NFKB1 fold induction respect to basal conditions [3]: 2.25 | IRF3 fold induction respect to basal conditions [8]: 2.25 | S. epidermidis (%), normalized percentage respect to basal conditions [4]: 4.14%

H-EEMQRH-NH2 [PEP-57, H-Glu-Glu-Met-Gln-Arg-His-NH2]
NFKB1 fold induction respect to basal conditions [3]: 2.49 | IRF3 fold induction respect to basal conditions [8]: 2.49 | S. epidermidis (%), normalized percentage respect to basal conditions [4]: 13.57%
